From the NIST ThermoML archive (doi:10.1016/j.fluid.2011.06.011)
Numbers after ± are expanded uncertainties.

Assay: xn = mol fraction of the nth substance listed
Settings: Liquid; for speed of sound: Sing-around technique in a fixed-path interferometer; for mass density: Vibrating tube method

C=CC(C)(O)CCC=C(C)C (stereo not drawn) [3,7-dimethyl-1,6-octadien-3-ol] + CCO
Settings	mass density, 283.15 K [kg/m3]	mass density, 298.15 K [kg/m3]	speed of sound, 283.15 K [m/s]	speed of sound, 298.15 K [m/s]
101 kPa, x1 = 0.0506	809.66 ± 0.12	797.07 ± 0.13	1222 ± 0.7	–
101 kPa, x1 = 0.0507	–	–	–	1171.7 ± 0.7
101 kPa, x1 = 0.1008	819.09 ± 0.12	806.76 ± 0.13	1245 ± 0.8	1196.3 ± 0.8
101 kPa, x1 = 0.1969	833.37 ± 0.13	821.08 ± 0.14	1281 ± 0.9	1229.2 ± 0.9
101 kPa, x1 = 0.2895	843.35 ± 0.15	831.1 ± 0.15	–	1253.6 ± 1
101 kPa, x1 = 0.2959	–	–	1307.6 ± 1	–
101 kPa, x1 = 0.3862	–	838.62 ± 0.19	1325.8 ± 1.1	1271.2 ± 1.1
101 kPa, x1 = 0.3957	851.69 ± 0.19	–	–	–
101 kPa, x1 = 0.4803	856.48 ± 0.22	844.09 ± 0.23	1339 ± 1.2	–
101 kPa, x1 = 0.4834	–	–	–	1285 ± 1.2
101 kPa, x1 = 0.593	861.02 ± 0.29	848.66 ± 0.29	1350.3 ± 1.4	1294.7 ± 1.4
101 kPa, x1 = 0.6838	863.65 ± 0.35	851.31 ± 0.35	1355.4 ± 1.5	1300.7 ± 1.5
101 kPa, x1 = 0.7832	–	–	1361 ± 1.7	1306.5 ± 1.7
101 kPa, x1 = 0.8438	866.82 ± 0.48	854.5 ± 0.47	–	–
101 kPa, x1 = 0.8941	867.74 ± 0.52	855.41 ± 0.52	1365.1 ± 1.9	1310.7 ± 1.9
101 kPa, x1 = 0.9286	868.3 ± 0.56	855.96 ± 0.55	1366.7 ± 1.9	1312.2 ± 1.9
101 kPa, x1 = 1	869.39 ± 0.63	857 ± 0.62	1370.6 ± 2	1315.1 ± 2
20000 kPa, x1 = 0.0511	824.1 ± 0.6	812.6 ± 0.6	–	–
20000 kPa, x1 = 0.1003	832.7 ± 0.6	821.5 ± 0.6	–	–
20000 kPa, x1 = 0.1962	845.8 ± 0.6	834.6 ± 0.6	–	–
20000 kPa, x1 = 0.2989	856 ± 0.6	844.8 ± 0.6	–	–
20000 kPa, x1 = 0.3996	863 ± 0.6	851.7 ± 0.6	–	–
20000 kPa, x1 = 0.5015	868.2 ± 0.6	856.9 ± 0.6	–	–
20000 kPa, x1 = 0.5982	871.9 ± 0.6	860.6 ± 0.6	–	–
20000 kPa, x1 = 0.6898	874.7 ± 0.7	863.4 ± 0.7	–	–
20000 kPa, x1 = 0.7929	877.2 ± 0.7	865.8 ± 0.7	–	–
20000 kPa, x1 = 0.8885	879.1 ± 0.8	867.7 ± 0.8	–	–
20000 kPa, x1 = 0.9435	880 ± 0.8	868.6 ± 0.8	–	–
20000 kPa, x1 = 1	880.8 ± 0.8	869.4 ± 0.8	–	–
25000 kPa, x1 = 0.0511	827.5 ± 0.6	816.1 ± 0.6	–	–
25000 kPa, x1 = 0.1003	836.1 ± 0.6	824.9 ± 0.6	–	–
25000 kPa, x1 = 0.1962	849 ± 0.6	837.9 ± 0.6	–	–
25000 kPa, x1 = 0.2989	859.1 ± 0.6	848 ± 0.6	–	–
25000 kPa, x1 = 0.3996	866 ± 0.6	854.8 ± 0.6	–	–
25000 kPa, x1 = 0.5015	871.2 ± 0.6	860 ± 0.6	–	–
25000 kPa, x1 = 0.5982	874.9 ± 0.6	863.6 ± 0.6	–	–
25000 kPa, x1 = 0.6898	877.6 ± 0.7	866.3 ± 0.7	–	–
25000 kPa, x1 = 0.7929	880.1 ± 0.7	868.7 ± 0.7	–	–
25000 kPa, x1 = 0.8885	882 ± 0.8	870.7 ± 0.8	–	–
25000 kPa, x1 = 0.9435	882.9 ± 0.8	871.5 ± 0.8	–	–
25000 kPa, x1 = 1	883.7 ± 0.9	872.3 ± 0.9	–	–
30000 kPa, x1 = 0.0511	830.7 ± 0.6	819.6 ± 0.6	–	–
30000 kPa, x1 = 0.1003	839 ± 0.6	828.2 ± 0.6	–	–
30000 kPa, x1 = 0.1962	851.9 ± 0.6	841.1 ± 0.6	–	–
30000 kPa, x1 = 0.2989	861.9 ± 0.6	851 ± 0.6	–	–
30000 kPa, x1 = 0.3996	868.8 ± 0.6	857.8 ± 0.6	–	–
30000 kPa, x1 = 0.5015	873.9 ± 0.6	863 ± 0.6	–	–
30000 kPa, x1 = 0.5982	877.5 ± 0.6	866.5 ± 0.7	–	–
30000 kPa, x1 = 0.6898	880.2 ± 0.7	869.2 ± 0.7	–	–
30000 kPa, x1 = 0.7929	882.7 ± 0.7	871.6 ± 0.7	–	–
30000 kPa, x1 = 0.8885	884.6 ± 0.8	873.5 ± 0.8	–	–
30000 kPa, x1 = 0.9435	885.4 ± 0.8	874.4 ± 0.8	–	–
30000 kPa, x1 = 1	886.1 ± 0.9	875.2 ± 0.9	–	–
35000 kPa, x1 = 0.0511	833.8 ± 0.6	822.8 ± 0.6	–	–
35000 kPa, x1 = 0.1003	842.2 ± 0.6	831.4 ± 0.6	–	–
35000 kPa, x1 = 0.1962	854.9 ± 0.6	844.1 ± 0.6	–	–
35000 kPa, x1 = 0.2989	864.7 ± 0.6	854 ± 0.6	–	–
35000 kPa, x1 = 0.3996	871.5 ± 0.6	860.7 ± 0.6	–	–
35000 kPa, x1 = 0.5015	876.7 ± 0.6	865.8 ± 0.6	–	–
35000 kPa, x1 = 0.5982	880.3 ± 0.7	869.3 ± 0.7	–	–
35000 kPa, x1 = 0.6898	882.9 ± 0.7	872 ± 0.7	–	–
35000 kPa, x1 = 0.7929	885.3 ± 0.7	874.4 ± 0.8	–	–
35000 kPa, x1 = 0.8885	887.2 ± 0.8	876.3 ± 0.8	–	–
35000 kPa, x1 = 0.9435	888.1 ± 0.8	877.1 ± 0.8	–	–
35000 kPa, x1 = 1	888.9 ± 0.9	877.9 ± 0.9	–	–
40000 kPa, x1 = 0.0511	836.8 ± 0.6	826 ± 0.6	–	–
40000 kPa, x1 = 0.1003	845.1 ± 0.6	834.5 ± 0.6	–	–
40000 kPa, x1 = 0.1962	857.6 ± 0.6	847.1 ± 0.6	–	–
40000 kPa, x1 = 0.2989	867.4 ± 0.6	856.9 ± 0.6	–	–
40000 kPa, x1 = 0.3996	874.1 ± 0.6	863.5 ± 0.6	–	–
40000 kPa, x1 = 0.5015	879.3 ± 0.6	868.6 ± 0.6	–	–
40000 kPa, x1 = 0.5982	882.8 ± 0.7	872.1 ± 0.7	–	–
40000 kPa, x1 = 0.6898	885.5 ± 0.7	874.8 ± 0.7	–	–
40000 kPa, x1 = 0.7929	887.9 ± 0.8	877.1 ± 0.8	–	–
40000 kPa, x1 = 0.8885	889.7 ± 0.8	878.9 ± 0.8	–	–
40000 kPa, x1 = 0.9435	890.6 ± 0.9	879.7 ± 0.9	–	–
40000 kPa, x1 = 1	891.4 ± 0.9	880.6 ± 0.9	–	–
